We go through two compounds from patent US20250000874A1, “BACTERIAL METABOLITES AND THEIR USE IN REDUCING INFLAMMATION” (LOYOLA UNIVERSITY OF CHICAGO, priority 2023, published 2025).

“Also recorded” adds a separate entry of the source.

In one experiment the test system is NF-kB. In words: MQ on translocation of NF-kB (p65) to the nucleus in HCECs, western blot. It is filed as cell-based, human. To be noted: MQ 50 μM overnight, FLA 100 ng/ml 3 hours. As for the experimental part: Materials and Methods: Human corneal epithelial cells were grown in culture. Cells were then plated in DMEM. The cells cultures were then kept at 37° C. with 5% CO2. Once ready, HCECs were then incubated with MQ at a concentration of 50 uM overnight. […] Samples were treated for 3 hours and then samples were collected. Nuclear and cytoplasmic fractions were obtained using 0.1% NP-40 buffer. Cells were pelleted and the supernatant was discarded. Cells were then treated with 25 μl of NP-40 lysis buffer. Upon addition of the buffer cells were centrifuged for 10 minutes at 3000 rpm at 4° C. The supernatant was collected which is the cytoplasmic fraction and the remaining pellet was the nuclear fraction. The pellet was then washed three times to remove any remaining cytoplasmic fraction.
Both fractions were then treated with 2x SDS loading buffer and the protein was denatured at 100° C. and placed on ice. Proteins were run on a gel at […] until the dye front neared the bottom of the gel. Protein was then dry transferred to a membrane. The membrane was blocked in 5% blocking buffer overnight. The following day the membrane was washed three times with PBS-T and anti-mouse p65-NF-kB rabbit polyclonal antibody was added. […]
The inhibitory effects on the translocation of NF-kB from the cytoplasm to the nucleus following stimulation with FLA was also assessed. […]

The test system of another experiment is THP-1 cells. The experiment in a line: NC on TNFα release in THP-1 cells in response to TLR agonists. It is filed as cell-based, human. To be noted: 50 μM NC 18 hours. The method, then:
FIG. 27A and FIG. 27B. Metabolite NC on TNFα release in response to LPS in human and murine macrophages in vitro. Macrophages were plated at a uniform density of 0.2×10^6 cells/mL in 24 well plates. These cells (FIG. 27A) were allowed to adhere, or, in the case of THP-1 cells FIG. 27B), differentiate using PMA. They were then treated for 18 hours with 50 μM of metabolite NC before being stimulated with 0.1 ug of LPS-EK. Supernatant was collected between 4-6 hours after addition of LPS and debris was removed via centrifugation at 1250 rpm for 5 minutes. TNFα was quantified in the supernatant using sandwich ELISA with standards of known concentrations.
FIG. 28A and FIG. 28B. Metabolite NC on TNFα release in macrophages in response to various TLR agonists. Raw 264.7 cells (FIG. 28A) and THP-1 FIG. 28B) cells were plated at a uniform density of 0.2×10^6 cells per mL and stimulated with various TLR agonists: Pam3CSK4, Poly I:C, LPS, Fla, FSL-1, imiquimod (ImiQ), and ODN-2006. NC reduced TNFα release in response to TLR3 (p<0.0001 via student's t-test for both Raw 264.7 cells and THP-1 cells) and TLR4 agonists in both cell lines.
To investigate the effects of compound NC, macrophages were stimulated with LPS, an endotoxin associated with gram-negative bacteria. Human and murine macrophage-like cells (THP-1 cells and Raw 264.7 cells, respectively) were plated in 24 well plates at a uniform density of 0.2×10^6 cells/mL. Following 18 hours of pretreatment with 50 μM metabolite NC, they were stimulated with 10 μg/mL of LPS. After 4-6 hours, supernatant was collected and TNFα was quantified using sandwich ELISA. NC reduces TNFα release from both THP-1 and Raw 264.7 macrophage-like cells in response to TLR4 agonist LPS in vitro.
Metabolite NC reduces inflammation in response to TLR4 agonist LPS. To further investigate the specificity of NC's action in TLR signaling, Raw 264.7 (FIG. 28A) and THP-1 (FIG. 28B) cells were once again plated at a uniform density of 0.2×10^6 cells/mL, treated with 50 μM metabolite NC for 18 hours, and stimulated with agonists for TLR1/2, TLR3, TLR4, TLR5, TLR6/2, TLR7 and TLR9. After 4-6 hours, supernatant was collected and TNFα was quantified via sandwich ELISA.

Consider Prednicarbate [MQ], for which the “translocation of NF-kB to the nucleus” value with NF-kB is “inhibited”.
Take `CCCCCCCCCCCCCCCC(=O)N[C@@H](C(=O)O)[C@H](C)O` [NC, N-Palmitoyl-D-Threonine]: in the experiment with THP-1 cells (4-6 hours, ELISA), the “TNFα release in response to TLR3 agonist Poly I:C” value was “reduced”. In the experiment on THP-1 cells (LPS, 4-6 hours, ELISA), the “TNFα release in response to TLR4 agonist LPS” value is “reduced; also recorded: significantly less”. Also, the “TNFα release in the absence of LPS stimulation” value in the experiment on THP-1 cells (unstimulated) is given as “did not increase; also recorded: does not increase”. In the experiment on THP-1 cells (TLR1/2, TLR5, TLR6/2, TLR7, TLR9 agonists), the “TNFα release in response to other TLR agonists” value is recorded as “did not significantly reduce”.
